Earlier results on two compounds are cited in US7625919B2, “4-azasteroid derivatives as androgen receptor modulators” (priority 2002, dated 2009).

Bounds are passed on as bounds.

The conditions of series [1]: after 7 years of treatment.
The conditions of series [2]: postmenopausal osteoporotic women, median of 22 months of treatment.

Consider `NCCCC(O)(P(=O)([O-])O)P(=O)(O)O.O.O.O.[Na+]` [alendronate, (4-amino-1-hydroxybutylidene)-bis-phosphonate monosodium trihydrate], for which, in series [1], the “increase in spinal BMD” value is 11%. Take “hPTH(1-34): human parathyroid hormone 1-34 fragment (SVSEIQLMHNLGKHLNSMERVEWLRKKLQDVHNF; Parathyroid hormone; UniProt P01270 32-65, looked up, fragment)”: in series [2], the “reduction in nonvertebral fractures” value was 54% and the “reduction in spine fractures” value was ≥ 65%.
